Data reported in patent US20220380306A1, “ASTAXANTHIN ESTERS AND METHODS OF USE THEREOF” (CARDAX,INC., priority 2019, published 2022).

Columns and labels:
[1] = Hydrolysis of ADMG compared to ADSa in solution or under basic conditions (NaHCO3 / Na2CO3); format: physicochemical; details: 16 hours
Description: The mixture was stirred at room temperature or 50° C. The reaction was monitored by HPLC and LCMS after 16 hours. […] “Byproduct” indicates a material that was formed other than the diester, monoester, or free astaxanthin.

[2] = Hydrolysis of ADMG compared to ADSa under basic conditions with KOH; format: physicochemical; details: KOH 55.6 molar equivalents, room temperature
Description: KOH was added at 55.6 molar equivalents as a solution in 81:9:10 methanol:dichloromethane:water at room temperature. The solution was analyzed using HPLC over various time points for starting diester (A), hydrolyzed monoester (B) and free astaxanthin (C). Byproduct indicates an impurity formed that is none of A, B, or C.

[3] = methotrexate 15-20 mg/week vs. placebo; cited from earlier work
[4] = 20 mg/D rosuvastatin vs. placebo; patients who achieved a reduction in CRP<2.0; cited from earlier work
IL-1β = IL-1β (Homo sapiens, UniProt P01584); details: cited from earlier work
[5] = methanol + saturated aq Na2CO3, rt
[6] = methanol + saturated aq NaHCO3, 50° C.
[7] = methanol + saturated aq NaHCO3, rt
[8] = subjects with a reduction of CRP<2.0 mg/L (regardless of dose)

Question: Which results are given for `CC1=C(/C=C/C(C)=C/C=C/C(C)=C/C=C/C=C(C)/C=C/C=C(C)/C=C/C2=C(C)C(=O)[C@@H](OC(=O)CN(C)C)CC2(C)C)C(C)(C)C[C@H](OC(=O)CN(C)C)C1=O` [ADMG, Astaxanthin Dimethyl Glycinate Diester]?
Answer: C (free astaxanthin) ([1]; methanol + saturated aq Na2CO3, 50° C.): 92% C; B (hydrolyzed monoester) [1, 5]: 5% B; C (free astaxanthin) [1, 5]: 90% C; A (starting diester) [1, 6]: 33% A; B (hydrolyzed monoester) [1, 6]: 50% B; C (free astaxanthin) [1, 6]: 23% C; A (starting diester) [1, 7]: 64% A; B (hydrolyzed monoester) [1, 7]: 28% B; C (free astaxanthin) [1, 7]: 2% C; A (starting diester) ([1]; methanol, no base, rt): 75% A; Byproduct ([1]; methanol, no base, rt): 21% byproduct; A (starting diester) ([2]; time 0 hr): 93.7%; B (hydrolyzed monoester) ([2]; time 0 hr): 0.1%; Byproduct ([2]; time 0 hr): 0%; C (free astaxanthin) ([2]; time 0 hr): 0%; A (starting diester) ([2]; time 0.07 hr): 86.4%; B (hydrolyzed monoester) ([2]; time 0.07 hr): 7.3%; Byproduct ([2]; time 0.07 hr): 0%; C (free astaxanthin) ([2]; time 0.07 hr): 0.1%; A (starting diester) ([2]; time 0.65 hr): 36.1%; B (hydrolyzed monoester) ([2]; time 0.65 hr): 44.9%; Byproduct ([2]; time 0.65 hr): 0.1%; C (free astaxanthin) ([2]; time 0.65 hr): 13.2%; A (starting diester) ([2]; time 1.23 hr): 14.4%; B (hydrolyzed monoester) ([2]; time 1.23 hr): 44.6%; Byproduct ([2]; time 1.23 hr): 0.8%; C (free astaxanthin) ([2]; time 1.23 hr): 34.6%; A (starting diester) ([2]; time 1.80 hr): 5.5%; B (hydrolyzed monoester) ([2]; time 1.80 hr): 34.2%; Byproduct ([2]; time 1.80 hr): 1.4%; C (free astaxanthin) ([2]; time 1.80 hr): 53.0%; A (starting diester) ([2]; time 2.38 hr): 2.0%; B (hydrolyzed monoester) ([2]; time 2.38 hr): 23.4%; Byproduct ([2]; time 2.38 hr): 2.0%; C (free astaxanthin) ([2]; time 2.38 hr): 66.6%; A (starting diester) ([2]; time 2.97 hr): 0.7%; B (hydrolyzed monoester) ([2]; time 2.97 hr): 14.9%; Byproduct ([2]; time 2.97 hr): 2.7%; C (free astaxanthin) ([2]; time 2.97 hr): 75.4%; A (starting diester) ([2]; time 3.55 hr): 0.2%; B (hydrolyzed monoester) ([2]; time 3.55 hr): 9.2%; Byproduct ([2]; time 3.55 hr): 3.4%; C (free astaxanthin) ([2]; time 3.55 hr): 80.7%

Question: With `CN(Cc1cnc2nc(N)nc(N)c2n1)c1ccc(C(=O)N[C@@H](CCC(=O)O)C(=O)O)cc1` [methotrexate] as the molecule, how does the “cardiovascular events compared to placebo” value [3] read?
Answer: did not result in fewer cardiovascular events

Question: And the “levels of IL-1β, IL-6, or CRP” value [3]?
Answer: did not reduce

Question: With `CC(C)c1nc(N(C)S(C)(=O)=O)nc(-c2ccc(F)cc2)c1/C=C/[C@@H](O)C[C@@H](O)CC(=O)O` [rosuvastatin] as the molecule, how does the “reduction in vascular events” value [4] read?
Answer: 62%

Question: With “Astaxanthin Sarcosine Diester [ADSa, reference compound]” as the molecule, how does the “A (starting diester)” value ([1]; methanol, no base, rt) read?
Answer: 72% A

Question: What about the Byproduct ([1]; methanol, no base, rt) of the same molecule?
Answer: 16% byproduct

Question: What about the “A (starting diester)” value ([2]; time 0 hr) of the same molecule?
Answer: 91.4%

Question: And the “B (hydrolyzed monoester)” value ([2]; time 0 hr)?
Answer: 0.5%

Question: What about the Byproduct ([2]; time 0 hr) of the same molecule?
Answer: 0%

Question: And the “C (free astaxanthin)” value ([2]; time 0 hr)?
Answer: 0%

Question: What about the “A (starting diester)” value ([2]; time 0.05 hr) of the same molecule?
Answer: 24.0%

Question: What about the “B (hydrolyzed monoester)” value ([2]; time 0.05 hr) of the same molecule?
Answer: 46.8%

Question: What about the Byproduct ([2]; time 0.05 hr) of the same molecule?
Answer: 1.3%

Question: And the “C (free astaxanthin)” value ([2]; time 0.05 hr)?
Answer: 22.2%

Question: What about the “A (starting diester)” value ([2]; time 0.62 hr) of the same molecule?
Answer: 0%

Question: And the “B (hydrolyzed monoester)” value ([2]; time 0.62 hr)?
Answer: 0.5%

Question: What about the Byproduct ([2]; time 0.62 hr) of the same molecule?
Answer: 3.8%

Question: What about the “C (free astaxanthin)” value ([2]; time 0.62 hr) of the same molecule?
Answer: 90.8%

Question: With “canakinumab: monoclonal antibody that targets IL-1β” as the molecule, how does the “deaths from infection (mostly tuberculosis)” value (IL-1β; active treatment groups vs. placebo) read?
Answer: more deaths from infection

Question: And the “CRP and IL-6 levels” value (IL-1β; patients with active treatment)?
Answer: reduction

Question: What about the lipids (IL-1β; patients with active treatment) of the same molecule?
Answer: no change

Question: What about the “reduction in cardiovascular death and all-cause mortality” value (IL-1β; [8]) of the same molecule?
Answer: 31%

Question: And the “reduction in the primary end point (composite of myocardial infarction, stroke, or cardiovascular death)” value (IL-1β; [8])?
Answer: 25%
